Experimental data from patent US8889671B2, “Compounds and methods for treating bacterial infections” (AstraZeneca AB, priority 2013, dated 2014).
≈ marks a conversion by molar mass, not a printed value. Where two headings read alike, the source gives them in different places.

Tests used:
[1] = molecular target: Escherichia coli DNA gyrase A/B tetramer (Escherichia coli (strain K12), UniProt P0AES4+P0AES6); assay: DNA gyrase supercoiling activity fluorescence polarisation assay; type: biochemical; details: Eco Gyr FP Mean IC50, E. coli DNA gyrase supercoiling, 0.3 mM ATP
Experimental: In a black, 384-well polystyrene assay plate, 30 microliters/well of 5 nM Escherichia coli DNA gyrase A/B tetramer and 130 micrograms/mL of topologically relaxed plasmid containing the triplex-forming sequence
in an assay buffer consisting of 35 mM Tris-HCl (pH 7.5), 24 mM KCl, 4 mM MgCl2, 2 mM dithiothreitol, 1.8 mM spermidine, 5% (v/v) glycerol, 200 nM bovine serum albumin, 0.8% dimethylsulfoxide, and 0.3 mM ATP were incubated at ambient temperature for (typically 30 minutes) in the absence or presence of 5-10 different concentrations of test compound. The supercoiling reactions were quenched by the addition of 10 microliters/well of 40 nM oligodeoxynucleotide probe in 3× triplex-forming buffer consisting of 150 mM NaCl, and 150 mM sodium acetate at pH 3.5. The oligodeoxynucleotide probe was 5′-BODIPY-FL-labeled
After 60 minutes, the fluorescence anisotropy of the BODIPY-FL was measured in a Tecan Ultra plate reader, using 485 nm excitation and 535 nm emission filters equipped with polarizers. The IC50 was determined by nonlinear regression using two control reactions.

Escherichia coli = assay: Susceptibility testing (MIC) Assay 2, broth microdilution; type: cell-based; details: K12, read-out: Eco MIC
Experimental: (§1) Minimum Inhibitory Concentrations (MICs) were determined by the broth microdilution method in accordance with the Clinical and Laboratory Standards Institute (CLSI) guidelines. In brief, organism suspensions were adjusted to a 0.5 McFarland standard to yield a final inoculum between 3×10^5 and 7×10^5 colony-forming units (CFU)/mL. Bacterial inocula were generally prepared in sterile, cation adjusted Mueller-Hinton Broth (Becton Dickinson) which included Escherichia coli, Klebsiella pneumoniae, and Pseudomonas aeruginosa. Haemophilus influenzae bacterial inocula were prepared in sterile, cation adjusted Mueller-Hinton Broth (Becton Dickinson) containing 0.5% yeast extract (Becton Dickinson) plus 30 mL of 15 μg/mL Bovine Hematin stock (Sigma), and 3 mL of 15 μg/mL β-nicotinamide adenine dinucleotide (Sigma). Strains of Neisseria were tested for MICs using agar dilution methodology in accordance with CLSI guidelines. For broth microdilution testing, an inoculum volume of 100 μL was added to wells (using a Tecan EVO robot) containing 2 μL of DMSO containing 2-fold serial dilutions of drug. All inoculated microdilution panels were incubated in ambient air at 35° C. for 18-24 hours. Following incubation, the lowest concentration of the drug that prevented visible growth as read at OD600 nm and confirmed by a visual read using a test reading mirror was recorded as the MIC. Performance of the assay was monitored by the use of laboratory quality-control strains and commercially available control compounds with defined MIC spectrums, in accordance with CLSI guidelines. Table 3 provides the MIC results (μM) of Examples 1-77 tested in Assay 2. Table 4 provides the MIC (μg/mL) results of Examples 78-80 tested in Assay 2.

Haemophilus influenzae = assay: as above; type: cell-based; details: ATCC51907, Haemophilus influenzae, ATCC 51907, in vivo strain, read-out: Hin MIC
Experimental: as §1

Klebsiella pneumoniae = assay: as above; type: cell-based; details: clinical isolate, mucoid, read-out: Kpn MIC
Experimental: as §1

Pseudomonas aeruginosa = assay: as above; type: cell-based; details: PAO1, read-out: Pae MIC
Experimental: as §1

Streptococcus pyogenes = assay: Susceptibility testing (MIC) Assay 1, broth microdilution; type: cell-based; details: Streptococcus pyogenes, Streptococcus pyrgenes, in vivo strain; read-out: Spy MIC
Experimental: (§2) Minimum Inhibitory Concentrations (MICs) were determined by the broth microdilution method in accordance with the Clinical and Laboratory Standards Institute (CLSI) guidelines. In brief, organism suspensions were adjusted to a 0.5 McFarland standard to yield a final inoculum between 3×10^5 and 7×10^5 colony-forming units (CFU)/mL. Bacterial inocula were prepared for most organisms in sterile, cation adjusted Mueller-Hinton Broth (Beckton Dickinson). The streptococci were prepared as above in cation adjusted Mueller-Hinton Broth to which 2.5% lysed horse blood (Hema Resource & Supply Inc.) was added. An inoculum volume of 100 μL was added to wells (using a Tecan EVO robot) containing 2 μL of DMSO containing 2-fold serial dilutions of drug. All inoculated microdilution trays were incubated in ambient air at 35° C. for 18-24 hours. Following incubation, the lowest concentration of the drug that prevented visible growth as read at OD600 nm and confirmed by a visual read using a test reading mirror was recorded as the MIC. Performance of the assay was monitored by the use of laboratory quality-control strains and commercially available control compounds with defined MIC spectrums, in accordance with CLSI guidelines. Table 1 provides the MIC results (μM) of Examples 1-77 tested in Assay 1. Table 2 provides the MIC (μg/mL) results of Examples 78-80 tested in Assay 1.

Streptococcus pneumoniae = assay: as above; type: cell-based
Experimental: as §2

Staphylococcus aureus = assay: as above; type: cell-based; details: Staphylococcus aureus
Experimental: as §2

[2] = in vivo strain (footnote b), read-out: Spn(b) MIC
[3] = in vivo strain (footnote c), read-out: Spn(c) MIC
[4] = Staphylococcus aureus in vivo strain, MSQS, read-out: Sau(d) MIC
[5] = in vivo strain, MRQR, read-out: Sau(e) MIC

Row | SMILES | IC50 [1] | MIC (Escherichia coli) | MIC (Haemophilus influenzae) | MIC (Klebsiella pneumoniae) | MIC (Pseudomonas aeruginosa) | MIC (Streptococcus pyogenes) | MIC (Streptococcus pneumoniae; [2]) | MIC (Streptococcus pneumoniae; [3]) | MIC (Staphylococcus aureus; [4]) | MIC (Staphylococcus aureus; [5]) | MIC (Staphylococcus aureus; serum, read-out: Sau(f) MIC)
1 | C[C@@H]1CN2c3c(cc4c(N5C(=O)OC[C@@H]5c5ccccc5)noc4c3F)CC3(C(=O)NC(=O)NC3=O)[C@H]2[C@H](C)O1 [Example 9, (2R,4S,4aS)-11-Fluoro-2,4-dimethyl-8-[(4S)-2-oxo-4-phenyl-1,3-oxazolidin-3-yl]-1,2,4,4a-tetrahydro-2′H,6H-spiro[1,4-oxazino[4,3-a][1,2]oxazolo[4,5-g]quinoline-5,5′-pyrimidine]-2′,4′,6′(1′H,3′H)-trione] | 710 nM | 50 µM (≈ 27.5 µg/mL) | 0.39 µM (≈ 0.214 µg/mL) | > 200 µM | > 200 µM | 0.78 µM (≈ 0.429 µg/mL) | 1.6 µM (≈ 0.879 µg/mL) | 1.6 µM (≈ 0.879 µg/mL) | 0.78 µM (≈ 0.429 µg/mL) | 0.78 µM (≈ 0.429 µg/mL) | 12 µM (≈ 6.59 µg/mL)
2 | C[C@@H]1CN2c3c(cc4c(N5C(=O)OC[C@H]5Cc5ccccc5)noc4c3F)CC3(C(=O)NC(=O)NC3=O)[C@H]2[C@H](C)O1 [Example 10, (2R,4S,4aS)-8-[(4R)-4-Benzyl-2-oxo-1,3-oxazolidin-3-yl]-11-fluoro-2,4-dimethyl-1,2,4,4a-tetrahydro-2′H,6H-spiro[1,4-oxazino[4,3-a][1,2]oxazolo[4,5-g]quinoline-5,5′-pyrimidine]-2′,4′,6′(1′H,3′H)-trione] | 6700 nM | > 200 µM | 25 µM (≈ 14.1 µg/mL) | > 200 µM | > 200 µM | 25 µM (≈ 14.1 µg/mL) | 50 µM (≈ 28.2 µg/mL) | 50 µM (≈ 28.2 µg/mL) | 6.2 µM (≈ 3.49 µg/mL) | 12 µM (≈ 6.76 µg/mL) | 200 µM (≈ 113 µg/mL)
3 | C[C@@H]1CN2c3c(cc4c(N5C(=O)OC[C@@H]5Cc5ccccc5)noc4c3F)CC3(C(=O)NC(=O)NC3=O)[C@H]2[C@H](C)O1 [Example 11, (2R,4S,4aS)-8-[(4S)-4-Benzyl-2-oxo-1,3-oxazolidin-3-yl]-11-fluoro-2,4-dimethyl-1,2,4,4a-tetrahydro-2′H,6H-spiro[1,4-oxazino[4,3-a][1,2]oxazolo[4,5-g]quinoline-5,5′-pyrimidine]-2′,4′,6′(1′H,3′H)-trione] | 1200 nM | 50 µM (≈ 28.2 µg/mL) | 3.1 µM (≈ 1.75 µg/mL) | > 200 µM | > 200 µM | 3.1 µM (≈ 1.75 µg/mL) | 3.1 µM (≈ 1.75 µg/mL) | 3.1 µM (≈ 1.75 µg/mL) | 1.6 µM (≈ 0.902 µg/mL) | 1.6 µM (≈ 0.902 µg/mL) | 25 µM (≈ 14.1 µg/mL)
4 | CC[C@H]1CN(c2noc3c(F)c4c(cc23)CC2(C(=O)NC(=O)NC2=O)[C@H]2[C@H](C)O[C@H](C)CN42)C(=O)O1 [Example 13, (2R,4S,4aS)-8-[(5S)-5-Ethyl-2-oxo-1,3-oxazolidin-3-yl]-11-fluoro-2,4-dimethyl-1,2,4,4a-tetrahydro-2′H,6H-spiro[1,4-oxazino[4,3-a][1,2]oxazolo[4,5-g]quinoline-5,5′-pyrimidine]-2′,4′,6′(1′H,3′H)-trione] | 510 nM | 12 µM (≈ 6.02 µg/mL) | 0.78 µM (≈ 0.391 µg/mL) | 200 µM (≈ 100 µg/mL) | > 200 µM | 0.39 µM (≈ 0.196 µg/mL) | 0.78 µM (≈ 0.391 µg/mL) | 0.78 µM (≈ 0.391 µg/mL) | 0.39 µM (≈ 0.196 µg/mL) | 0.78 µM (≈ 0.391 µg/mL) | 0.78 µM (≈ 0.391 µg/mL)
5 | CC[C@@H]1CN(c2noc3c(F)c4c(cc23)CC2(C(=O)NC(=O)NC2=O)[C@H]2[C@H](C)O[C@H](C)CN42)C(=O)O1 [Example 14, (2R,4S,4aS)-8-[(5R)-5-Ethyl-2-oxo-1,3-oxazolidin-3-yl]-11-fluoro-2,4-dimethyl-1,2,4,4a-tetrahydro-2′H,6H-spiro[1,4-oxazino[4,3-a][1,2]oxazolo[4,5-g]quinoline-5,5′-pyrimidine]-2′,4′,6′(1′H,3′H)-trione] | 570 nM | 25 µM (≈ 12.5 µg/mL) | 0.78 µM (≈ 0.391 µg/mL) | 200 µM (≈ 100 µg/mL) | > 200 µM | 0.78 µM (≈ 0.391 µg/mL) | 0.78 µM (≈ 0.391 µg/mL) | 0.78 µM (≈ 0.391 µg/mL) | 0.39 µM (≈ 0.196 µg/mL) | 0.78 µM (≈ 0.391 µg/mL) | 1.6 µM (≈ 0.802 µg/mL)
6 | C[C@@H]1CN2c3c(cc4c(N5C(=O)OC[C@@H]5CF)noc4c3F)CC3(C(=O)NC(=O)NC3=O)[C@H]2[C@H](C)O1 [Example 15, (2R,4S,4aS)-11-Fluoro-8-[(4R)-4-(fluoromethyl)-2-oxo-1,3-oxazolidin-3-yl]-2,4-dimethyl-1,2,4,4a-tetrahydro-2′H,6H-spiro[1,4-oxazino[4,3-a][1,2]oxazolo[4,5-g]quinoline-5,5′-pyrimidine]-2′,4′,6′(1′H,3′H)-trione] | 130 nM | 12 µM (≈ 6.07 µg/mL) | < 0.2 µM | > 200 µM | > 200 µM | < 0.2 µM | 0.28 µM (≈ 0.142 µg/mL) | 0.39 µM (≈ 0.197 µg/mL) | 0.28 µM (≈ 0.142 µg/mL) | 0.78 µM (≈ 0.394 µg/mL) | 0.39 µM (≈ 0.197 µg/mL)
7 | C[C@@H]1CN2c3c(cc4c(N5C(=O)OC[C@H]5CF)noc4c3F)CC3(C(=O)NC(=O)NC3=O)[C@H]2[C@H](C)O1 [Example 16, (2R,4S,4aS)-11-Fluoro-8-[(4S)-4-(fluoromethyl)-2-oxo-1,3-oxazolidin-3-yl]-2,4-dimethyl-1,2,4,4a-tetrahydro-2′H,6H-spiro[1,4-oxazino[4,3-a][1,2]oxazolo[4,5-g]quinoline-5,5′-pyrimidine]-2′,4′,6′(1′H,3′H)-trione] | 190 nM | 25 µM (≈ 12.6 µg/mL) | 0.78 µM (≈ 0.394 µg/mL) | 200 µM (≈ 101 µg/mL) | > 200 µM | 0.39 µM (≈ 0.197 µg/mL) | 0.39 µM (≈ 0.197 µg/mL) | 0.39 µM (≈ 0.197 µg/mL) | 0.39 µM (≈ 0.197 µg/mL) | 1.6 µM (≈ 0.809 µg/mL) | 1.6 µM (≈ 0.809 µg/mL)
8 | COC[C@@H]1COC(=O)N1c1noc2c(F)c3c(cc12)CC1(C(=O)NC(=O)NC1=O)[C@H]1[C@H](C)O[C@H](C)CN31 [Example 18, (2R,4S,4aS)-11-fluoro-8-[(4R)-4-(methoxymethyl)-2-oxo-1,3-oxazolidin-3-yl]-2,4-dimethyl-1,2,4,4a-tetrahydro-2′H,6H-spiro[1,4-oxazino[4,3-a][1,2]oxazolo[4,5-g]quinoline-5,5′-pyrimidine]-2′,4′,6′(1′H,3′H)-trione] | 810 nM | > 200 µM | 3.1 µM (≈ 1.6 µg/mL) | > 200 µM | > 200 µM | 12 µM (≈ 6.21 µg/mL) | 3.1 µM (≈ 1.6 µg/mL) | 6.2 µM (≈ 3.21 µg/mL) | 3.1 µM (≈ 1.6 µg/mL) | 6.2 µM (≈ 3.21 µg/mL) | 12 µM (≈ 6.21 µg/mL)
9 | C[C@@H]1CN2c3c(cc4c(N5C[C@@H](CF)OC5=O)noc4c3F)CC3(C(=O)NC(=O)NC3=O)[C@H]2[C@H](C)O1 [Example 19] | 160 nM | 8.8 µM (≈ 4.45 µg/mL) | 0.28 µM (≈ 0.142 µg/mL) | 200 µM (≈ 101 µg/mL) | > 200 µM | < 0.2 µM | < 0.2 µM | 0.24 µM (≈ 0.121 µg/mL) | 0.14 µM (≈ 0.0708 µg/mL) | 0.78 µM (≈ 0.394 µg/mL) | 0.28 µM (≈ 0.142 µg/mL)
10 | COC[C@@H]1CN(c2noc3c(Cl)c4c(cc23)CC2(C(=O)NC(=O)NC2=O)[C@H]2[C@H](C)O[C@H](C)CN42)C(=O)O1 [Example 20] | 420 nM | 25 µM (≈ 13.3 µg/mL) | 0.39 µM (≈ 0.208 µg/mL) | > 200 µM | > 200 µM | 0.28 µM (≈ 0.149 µg/mL) | 0.28 µM (≈ 0.149 µg/mL) | 0.28 µM (≈ 0.149 µg/mL) | 0.28 µM (≈ 0.149 µg/mL) | 1.1 µM (≈ 0.587 µg/mL) | 0.39 µM (≈ 0.208 µg/mL)
